≈ marks a conversion by molar mass, not a printed value. Read-outs that look alike come from different tables or passages of the source.
Experiments:
[1] = test system: Acinetobacter baumannii (ATCC 19606); test: MIC, broth microdilution; details: Acinetobacter baumannii
ACM1005 ATCC 19004 = test: MIC, broth microdilution; type: cell-based, Acinetobacter baumannii; details: Acinetobacter baumannii, ATCC19004
How it was run: (§1)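 CLSI broth microdilution used 2-fold serial dilutions in cation-adjusted Mueller Hinton broth with an inoculum of 5×10^5 CFU/ml. Plates were incubated 18 hours at 35° C. MIC was read by turbidity at 600 nm and confirmed visually.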

ACM1006 acc(6′)-Ib = test: microbe, parasite or virus in culture; type: cell-based, Acinetobacter baumannii; details: Acinetobacter baumannii
How it was run: as §1

[2] = test system: Staphylococcus aureus (ATCC 29213); test: MIC, broth microdilution; details: Staphylococcus aureus
ECM6006 aph(3′)-III = test: microbe, parasite or virus in culture; type: cell-based, Escherichia coli; details: Escherichia coli
How it was run: (§2)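 Broth microdilution MICs per CLSI M7-A7, 2-fold dilutions in cation-adjusted Mueller Hinton broth, inoculum 5×10^5 CFU/ml, 18 h at 35 °C. Strains express aminoglycoside-modifying enzymes; MIC read by turbidity at 600 nm and confirmed visually.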

ECM6010 ant(2″)-I = test: microbe, parasite or virus in culture; type: cell-based, Escherichia coli; details: Escherichia coli
How it was run: as §2

ECM6009 aac(3)-II = test: microbe, parasite or virus in culture; type: cell-based, Escherichia coli; details: Escherichia coli
How it was run: as §2

ECM6011 aph(3′)-I = test: microbe, parasite or virus in culture; type: cell-based, Escherichia coli; details: Escherichia coli
How it was run: as §2

[3] = test system: Enterobacter aerogenes EAM1000 ATCC 13048; test: MIC, representative strains; type: cell-based; details: Klebsiella aerogenes, ATCC13048, read-out: MIC Enterobacter aerogenes EAM1000 ATCC 13048
Protocol: (§3) To compare microbiological activity of the test compounds, minimum inhibitory concentrations (MIC.s) were determined. Antibiotic MICs were obtained using the broth microdilution method according to Clinical and Laboratory Standards Institute (CLSI) approved guidelines (Methods for dilution antimicrobial susceptibility tests for bacteria that grow aerobically; approved standard—7th ed. CLSI document M7-A7. Clinical and Laboratory Standards Institute, Wayne, Pa., incorporated herein by reference in its entirety). Antibiotics were dissolved as specified by CLSI (Performance standards for antimicrobial susceptibility testing; Seventeenth informational supplement. CLSI document M100-S17. Clinical and Laboratory Standards Institute, Wayne, Pa., incorporated herein by reference in its entirety), and were serially diluted 2-fold in cation adjusted Mueller Hinton Broth (CaMHB) at 2× concentration. Bacterial inoculums were prepared in CaMHB by suspension of a colony from an agar plate that was prepared the previous day to obtain a final concentration of 5×10^5CFU/ml. The plates were incubated for 18 hours at 35° C. […] MIC.s were determined by reading the turbidity of plate wells using a SpectraMax Plus384 plate reader (Molecular Devices, Sunnyvale, Calif., USA) at 600 nm and were confirmed by visual inspection.

[4] = test system: Staphylococcus aureus SAM1001 ATCC 25923; test: MIC, representative strains; type: cell-based; details: ATCC25923, read-out: MIC Staphylococcus aureus SAM1001 ATCC 25923
Protocol: as §3

[5] = test system: Citrobacter freundii CFM1000 ATCC 8090; test: MIC, representative strains; type: cell-based; details: ATCC8090, read-out: MIC Citrobacter freundii CFM1000 ATCC 8090
Protocol: as §3

[6] = test system: Enterobacter cloacae ECLM1000 ATCC 13047; test: MIC, representative strains; type: cell-based; details: ATCC13047, read-out: MIC Enterobacter cloacae ECLM1000 ATCC 13047
Protocol: as §3

[7] = test system: Pseudomonas aeruginosa PAM2859 multiple pumps deleted; test: MIC, representative strains; type: cell-based; details: read-out: MIC Pseudomonas aeruginosa PAM2859 multiple pumps deleted
Protocol: as §3

[8] = test system: Pseudomonas aeruginosa PAM2900 PAM2859/pXY; test: MIC, representative strains; type: cell-based; details: read-out: MIC Pseudomonas aeruginosa PAM2900 PAM2859/pXY
Protocol: as §3

[9] = Aminoglycoside cytotoxicity in HK-2 cells (Alamar Blue); type: cell-based, Human; details: human
Protocol: (§4) Human kidney cortex proximal tubule cells (HK-2) were purchased from ATCC and maintained according to manufacturer's recommendations in Keratinocyte Serum-Free Media (SFM; Invitrogen), with 0.05 mg/ml bovine pituitary extract and 5 ng/ml of Epidermal growth factor.
(§5) Solutions of aminoglycosides at a concentration of 50 mg/mL (both control and novel test compounds) were prepared in sterile deionized water. Before treatment of cells, the concentrated drug solutions were diluted to the appropriate concentration in Keratinocyte SFM {20, 10, 5, 2.5, 1.25, 0.6, 0.3, and 0 mM}. Pentamidine was used as a positive control.
(§6) HK-2 cells were seeded at 2.5*10^4 cells/well density in 96-well plates in Keratinocyte SFM and placed in a 37° C. tissue culture CO2 incubator. […]. Each treatment was performed in duplicate. […] Drug solutions were aspirated and replaced with 0.1 ml of 5% Alamar Blue (Abd Serotec) cell proliferation reagent in Keratinocyte SFM. Plates were read on a Molecular Devices Gemini EM fluorometer pre-warmed at 37° C. at […]. Plates were read at 0 and 4 hrs, and were incubated at 37° C. in a CO2 incubator in between reads. The fluorescence signal at the 0 h timepoint was subtracted from that at 4 h to account for background fluorescence.
(§7) The cytotoxicity data were reported as the amount of drug producing a 50% decrease in Alamar Blue signal relative to the no drug treatment control.

[10] = test system: Human kidney cortex proximal tubule cells (HK-2); test: as above; type: cell-based
Protocol: as §4, §5, §6, §7

[11] = ATCC19606, read-out: Compound MIC on Bacterial Strains: A. baumannii ATCC 19606
[12] = ATCC19606, read-out: MIC Acinetobacter baumannii ACM1003 ATCC 19606
[13] = Table 4, read-out: Compound MIC on Bacterial Strains: Acinetobacter baumannii ACM1005 ATCC 19004
[14] = Table 7, read-out: MIC Acinetobacter baumannii ACM1005 ATCC 19004
[15] = Table 4, read-out: Compound MIC on Bacterial Strains: Acinetobacter baumannii ACM1006 acc(6′)-Ib
[16] = Table 8, read-out: MIC Acinetobacter baumannii ACM1006 aac(6′)-Ib
[17] = ATCC29213, read-out: Compound MIC on Bacterial Strains: S. aureus ATCC 29213, QC strain, Table 2
[18] = ATCC29213, read-out: Compound MIC on Bacterial Strains: Staphylococcus aureus SAM1000 ATCC 29213, Table 5
[19] = ATCC29213, read-out: MIC Staphylococcus aureus SAM1000 ATCC 29213, Table 7
[20] = read-out: Compound MIC on Bacterial Strains: ECM6006 aph(3′)-III
[21] = read-out: MIC Escherichia coli ECM6006 aph(3′)-III
[22] = read-out: Compound MIC on Bacterial Strains: ECM6010 ant(2″)-I
[23] = read-out: MIC Escherichia coli ECM6010 ant(2″)
[24] = read-out: Compound MIC on Bacterial Strains: ECM6009 aac(3)-II
[25] = read-out: MIC Escherichia coli ECM6009 aac(3)-II, aph(3′)
[26] = read-out: Compound MIC on Bacterial Strains: ECM6011 aph(3′)-I
[27] = read-out: MIC Escherichia coli ECM6011 aph(3′)-I

## CN[C@@H]1C(O)[C@@H](OC2C(O)C(O[C@H]3O[C@H](CNC[C@@H](O)CO)CCC3N)[C@@H](N)C[C@H]2NC(=O)[C@@H](O)CN)OCC1(C)O (some centres unmarked) [Compound 44]
[1]; [11]
  MIC: > 8 µg/mL
[1]; [12]
  MIC: > 8 µg/mL
ACM1005 ATCC 19004; [13]
  MIC: 1 to 8 µg/mL (≈ 1.64 to 13.1 µM)
ACM1005 ATCC 19004; [14]
  MIC: 1 to 8 µg/mL (≈ 1.64 to 13.1 µM)
ACM1006 acc(6′)-Ib; [15]
  MIC: 1 to 8 µg/mL (≈ 1.64 to 13.1 µM)
ACM1006 acc(6′)-Ib; [16]
  MIC: 1 to 8 µg/mL (≈ 1.64 to 13.1 µM)
[2]; [17]
  MIC: < 1 µg/mL
[2]; [18]
  MIC: < 1 µg/mL
[2]; [19]
  MIC: < 1 µg/mL
ECM6006 aph(3′)-III; [20]
  MIC: < 1 µg/mL
ECM6006 aph(3′)-III; [21]
  MIC: 1 to 8 µg/mL (≈ 1.64 to 13.1 µM)
ECM6010 ant(2″)-I; [22]
  MIC: < 1 µg/mL
ECM6010 ant(2″)-I; [23]
  MIC: < 1 µg/mL
ECM6009 aac(3)-II; [24]
  MIC: < 1 µg/mL
ECM6009 aac(3)-II; [25]
  MIC: < 1 µg/mL
ECM6011 aph(3′)-I; [26]
  MIC: < 1 µg/mL
ECM6011 aph(3′)-I; [27]
  MIC: < 1 µg/mL
[3]
  MIC: < 1 µg/mL
[4]
  MIC: < 1 µg/mL
[5]
  MIC: < 1 µg/mL
[6]
  MIC: < 1 µg/mL
[7]
  MIC: < 1 µg/mL
[8]
  MIC: > 8 µg/mL
[9]
  IC50 at 24 h: > 20 mM
[10]
  cytotoxicity in HK-2 cells (in words): essentially non-cytotoxic

## CN[C@@H]1[C@@H](O)[C@@H](O[C@@H]2[C@@H](O)[C@H](O[C@H]3O[C@H](CNC[C@H](O)CO)CC[C@H]3N)[C@@H](N)C[C@H]2NC(=O)[C@@H](O)CN)OC[C@]1(C)O [Compound 45, (S)-3-amino-N-((1R,2S,3S,4R,5S)-5-amino-4-((2R,3R,6S)-3-amino-6-(((S)-2,3-dihydroxypropylamino)methyl)tetrahydro-2H-pyran-2-yloxy)-2-((2R,3R,4R,5R)-3,5-dihydroxy-5-methyl-4-(methylamino)tetrahydro-2H-pyran-2-yloxy)-3-hydroxycyclohexyl)-2-hydroxypropanamide]
[1]; [11]
  MIC: > 8 µg/mL
[1]; [12]
  MIC: > 8 µg/mL
ACM1005 ATCC 19004; [13]
  MIC: 1 to 8 µg/mL (≈ 1.64 to 13.1 µM)
ACM1005 ATCC 19004; [14]
  MIC: 1 to 8 µg/mL (≈ 1.64 to 13.1 µM)
ACM1006 acc(6′)-Ib; [15]
  MIC: 1 to 8 µg/mL (≈ 1.64 to 13.1 µM)
ACM1006 acc(6′)-Ib; [16]
  MIC: 1 to 8 µg/mL (≈ 1.64 to 13.1 µM)
[2]; [17]
  MIC: 1 to 8 µg/mL (≈ 1.64 to 13.1 µM)
[2]; [18]
  MIC: 1 to 8 µg/mL (≈ 1.64 to 13.1 µM)
[2]; [19]
  MIC: 1 to 8 µg/mL (≈ 1.64 to 13.1 µM)
ECM6006 aph(3′)-III; [20]
  MIC: < 1 µg/mL
ECM6006 aph(3′)-III; [21]
  MIC: 1 to 8 µg/mL (≈ 1.64 to 13.1 µM)
ECM6010 ant(2″)-I; [22]
  MIC: < 1 µg/mL
ECM6010 ant(2″)-I; [23]
  MIC: < 1 µg/mL
ECM6009 aac(3)-II; [24]
  MIC: < 1 µg/mL
ECM6009 aac(3)-II; [25]
  MIC: < 1 µg/mL
ECM6011 aph(3′)-I; [26]
  MIC: < 1 µg/mL
ECM6011 aph(3′)-I; [27]
  MIC: < 1 µg/mL
[3]
  MIC: 1 to 8 µg/mL (≈ 1.64 to 13.1 µM)
[4]
  MIC: < 1 µg/mL
[5]
  MIC: < 1 µg/mL
[6]
  MIC: < 1 µg/mL
[7]
  MIC: < 1 µg/mL
[8]
  MIC: > 8 µg/mL
[9]
  IC50 at 24 h: 10 mM
[10]; human, 48 h
  fold more cytotoxic than compound 44: at least 2 fold
